{
  "source": "ChEMBL document CHEMBL1201862",
  "about": "“PubChem BioAssay data set” (2004)",
  "key": {"[1]": {"molecular_target": "Aryl hydrocarbon receptor (Homo sapiens, UniProt P35869)", "sequence (P35869 whole entry)": "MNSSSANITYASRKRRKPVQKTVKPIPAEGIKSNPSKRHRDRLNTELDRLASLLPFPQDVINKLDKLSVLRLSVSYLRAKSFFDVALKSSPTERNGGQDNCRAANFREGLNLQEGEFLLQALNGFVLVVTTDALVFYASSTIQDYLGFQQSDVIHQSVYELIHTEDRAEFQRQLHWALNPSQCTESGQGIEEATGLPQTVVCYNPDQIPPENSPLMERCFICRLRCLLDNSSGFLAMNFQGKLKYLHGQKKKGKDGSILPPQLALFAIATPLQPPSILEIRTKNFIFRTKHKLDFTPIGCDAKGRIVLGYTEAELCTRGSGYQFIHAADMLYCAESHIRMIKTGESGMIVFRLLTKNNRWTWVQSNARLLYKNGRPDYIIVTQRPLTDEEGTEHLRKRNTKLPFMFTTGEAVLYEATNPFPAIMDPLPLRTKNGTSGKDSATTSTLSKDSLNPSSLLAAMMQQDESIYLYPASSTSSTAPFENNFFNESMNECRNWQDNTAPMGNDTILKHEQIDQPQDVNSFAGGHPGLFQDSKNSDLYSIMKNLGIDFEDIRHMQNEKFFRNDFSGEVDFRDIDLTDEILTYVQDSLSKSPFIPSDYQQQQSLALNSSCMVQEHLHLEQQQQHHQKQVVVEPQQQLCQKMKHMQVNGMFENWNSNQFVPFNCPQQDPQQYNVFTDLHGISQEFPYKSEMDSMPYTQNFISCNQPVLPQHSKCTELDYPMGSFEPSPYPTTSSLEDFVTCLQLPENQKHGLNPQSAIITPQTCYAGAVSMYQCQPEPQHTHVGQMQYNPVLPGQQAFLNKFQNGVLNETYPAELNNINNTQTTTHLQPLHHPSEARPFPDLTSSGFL", "test": "Luminescence-based cell-based high throughput dose response assay for activators of the Aryl Hydrocarbon Receptor (AHR). [Related pubchem assays: 2796 (Primary screen (AHR activators in singlicate)), 2845 (Confirmation screen (AHR activators in triplicate)), 434939 (Counterscreen (PXR activators in triplicate)), 2804 (Summary (AHR activators))]", "type": "ADME"}, "[2]": {"test": "growth suppression of PTEN-null colon cells, dose response, cell-based, HCT116 PTEN knockout (AID 1047);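 note: HCT116 colon tumor cells with PTEN knocked out; cells exposed to compound for 60 hours before readout; potency for loss of cell viability measured by luminescence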", "type": "functional"}, "[3]": {"test": "growth suppression of beta-catenin-knockout colon cells, dose response, cell-based, HCT116, human colon tumor (AID 1045);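 note: HCT116 colon tumor cells with beta catenin knocked out; cells exposed to compound for 60 hours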", "type": "functional"}, "[4]": {"molecular_target": "T1, Dual specificity protein phosphatase 6 (Rattus norvegicus, UniProt Q64346)", "T1 sequence (Q64346 whole entry)": "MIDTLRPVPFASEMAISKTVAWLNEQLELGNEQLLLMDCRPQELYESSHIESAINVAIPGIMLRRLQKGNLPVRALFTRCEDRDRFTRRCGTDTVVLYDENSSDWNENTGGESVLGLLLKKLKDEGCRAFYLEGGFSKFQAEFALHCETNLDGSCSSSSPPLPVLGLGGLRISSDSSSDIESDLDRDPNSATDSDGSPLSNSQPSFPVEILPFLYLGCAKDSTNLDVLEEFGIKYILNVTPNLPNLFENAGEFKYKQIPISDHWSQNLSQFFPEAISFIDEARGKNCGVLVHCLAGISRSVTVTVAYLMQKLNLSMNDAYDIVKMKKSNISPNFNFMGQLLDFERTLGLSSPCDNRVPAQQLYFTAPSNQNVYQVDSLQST", "test": "MKP-3 phosphatase inhibitors, primary screen, biochemical, rat enzyme, in vitro (AID 425)"}, "[5]": {"molecular_target": "Heat shock protein HSP 90-alpha (Homo sapiens, UniProt P07900)", "test": "Luminescence-based dose response biochemical high throughput screening assay for inhibitors of the Heat Shock Protein 90 (HSP90). [Related pubchem assays: 1831 (Summary AID.), 1846 (Confirmation screen.), 1789 (Primary screen.)]"}, "[6]": {"molecular_target": "T2, Rac GTPase-activating protein 1 (Homo sapiens, UniProt Q9H0H5)", "T2 sequence (Q9H0H5 whole entry)": "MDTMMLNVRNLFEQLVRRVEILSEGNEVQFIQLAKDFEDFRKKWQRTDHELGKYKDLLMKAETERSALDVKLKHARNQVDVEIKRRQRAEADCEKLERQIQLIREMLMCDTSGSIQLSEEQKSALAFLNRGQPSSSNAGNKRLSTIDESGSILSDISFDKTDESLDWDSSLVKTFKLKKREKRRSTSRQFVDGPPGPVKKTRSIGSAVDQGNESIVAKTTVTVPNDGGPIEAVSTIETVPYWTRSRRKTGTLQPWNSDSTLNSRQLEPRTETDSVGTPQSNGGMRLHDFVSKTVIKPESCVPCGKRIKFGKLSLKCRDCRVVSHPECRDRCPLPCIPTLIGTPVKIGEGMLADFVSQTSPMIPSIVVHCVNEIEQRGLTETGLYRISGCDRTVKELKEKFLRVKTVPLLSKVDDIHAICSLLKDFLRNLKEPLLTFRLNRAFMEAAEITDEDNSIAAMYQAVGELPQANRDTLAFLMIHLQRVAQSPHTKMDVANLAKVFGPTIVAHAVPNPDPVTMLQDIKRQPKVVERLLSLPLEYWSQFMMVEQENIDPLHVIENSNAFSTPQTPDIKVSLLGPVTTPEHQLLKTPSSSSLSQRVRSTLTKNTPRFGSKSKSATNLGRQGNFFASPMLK", "test": "MgcRacGAP GTPase-activating activity inhibitors, confirmation, biochemical, ADP Hunter fluorescence, primary and confirmatory (AID 624330)", "type": "functional"}, "[7]": {"molecular_target": "T3, Protein Tat (Human immunodeficiency virus type 1 group M subtype B (isolate HXB2)(HIV-1), UniProt P04608)", "T3 sequence (P04608 whole entry)": "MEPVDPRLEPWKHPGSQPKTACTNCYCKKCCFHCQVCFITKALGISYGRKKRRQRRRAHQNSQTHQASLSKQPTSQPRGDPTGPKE", "type": "functional"}, "[8]": {"test": "THP-1 cell cytotoxicity, dose response, cytotoxicity control for Vif-APOBEC3G degradation inhibitor project, THP-1 cells (AID 1117359)", "type": "functional", "conditions": "Human immunodeficiency virus 1, THP-1"}, "[9]": {"test": "inhibitors of Vif binding to APOBEC3G peptide, primary screen, biochemical, TR-FRET, GST-Vif 1-94, biotin-A3G peptide, dose response retest (AID 1117319);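 note: TR-FRET signal of purified GST-Vif binding a biotinylated A3G peptide; inhibitors lower the FRET signal by blocking Vif and A3G binding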", "type": "functional"}, "[10]": {"test": "cytotoxicity in HPDE-C7 cells, cell-based, fluorescence, HTS (AID 430)", "type": "functional", "conditions": "Homo sapiens"}, "[11]": {"test": "cytotoxicity in KRAS-transformed pancreatic duct cells, primary screen, cell-based, fluorescence, HTS (AID 431);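 note: cell line used: HPDE-C7K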", "type": "functional", "conditions": "Homo sapiens"}, "[12]": {"test": "Luminescence Cell-Based Dose Response to Identify Activators of 5'UTR Stem-Loop Driven Prion Protein mRNA Translation in H4-C Neuroglioblastoma Cells. [Related pubchem assays: 1829 (Project Summary), 1814 (Primary HTS)]", "type": "functional"}, "[13]": {"test": "Luminescence Cell-Based Dose Response HTS to Identify Activators of Luciferase Translation or Activity in H4 […] Cells. [Related pubchem assays: 1829 (Project Summary), 1814 (Primary HTS)]", "type": "functional"}, "[14]": {"tested_on": "H4", "test": "Luminescence Cell-Based Dose Response HTS to Identify Activators of 5'UTR Stem-Loop Driven Prion Protein mRNA Translation in H4 Neuroglioblastoma Cells. [Related pubchem assays: 1829 (Project Summary), 1814 (Primary HTS)]", "type": "functional", "conditions": "Homo sapiens"}, "[15]": {"test": "Luminescence Cell-Based Dose Response to Identify Activators of Luciferase Translation or Activity in H4-C Neuroglioblastoma Cells. [Related pubchem assays: 1829 (Project Summary), 1814 (Primary HTS)]", "type": "functional"}, "[16]": {"test": "Luminescence Cell-Based Dose Confirmation to Identify Activators of 5'UTR Stem-Loop Driven Alpha-Synuclein mRNA Translation in H4 Neuroglioblastoma Cells. [Related pubchem assays: 1829 (Project Summary), 1814 (Primary HTS)]", "type": "functional"}, "[17]": {"tested_on": "Vero", "test": "host cell cytotoxicity of antiviral hits, dose response, cytotoxicity control for West Nile virus antiviral project, secondary assay (AID 1650)", "type": "functional", "conditions": "Chlorocebus sabaeus"}, "[18]": {"tested_on": "Vero", "test": "cells", "type": "functional", "conditions": "Chlorocebus sabaeus"}},
  "note": "The source made the active and inactive calls.",
  "data": [
    {"smiles": "O=C(Nc1ccc2c(c1)OCO2)c1ccncc1", "values": [
      {"measurement": "EC50", "setting": "[1]", "result": "25.3 µM (not active)"}
    ]},
    {"smiles": "O=C1CC(c2ccccc2)c2cc(O)ccc2O1", "note": "(stereo unspecified)", "values": [
      {"measurement": "EC50", "setting": "[2]", "result": "32 µM (active)"},
      {"measurement": "EC50", "setting": "[3]", "result": "34.8 µM (active)"},
      {"measurement": "IC50", "setting": "[4]", "result": "> 100 µM (not active)"}
    ]},
    {"smiles": "COc1ccccc1Nc1nn2c(=O)c3ccc(C(=O)NCc4cccnc4)cc3nc2s1", "values": [
      {"measurement": "IC50", "setting": "[5]", "result": "4.9 µM (active)"}
    ]},
    {"smiles": "COc1ccc(Br)cc1CNc1ccc(O)cc1", "values": [
      {"measurement": "IC50", "setting": "[6]", "result": "26.8 µM (active)"},
      {"measurement": "IC50", "setting": "[7]", "result": "46.7 µM (inconclusive)"},
      {"measurement": "CC50", "setting": "[8]", "result": "> 40 µM (active)"}
    ]},
    {"smiles": "CCC(Sc1nc(O)cc(-c2ccccc2)n1)C(=O)O", "note": "(stereo unspecified)", "values": [
      {"measurement": "IC50", "setting": "[9]", "result": "> 100 µM (active)"}
    ]},
    {"smiles": "CN1C(=O)C2(OCC(COc3ccc(Cl)cc3)O2)c2ccccc21", "note": "(stereo unspecified)", "values": [
      {"measurement": "EC50", "setting": "[10]", "result": "> 20 µM (not active)"},
      {"measurement": "EC50", "setting": "[11]", "result": "> 20 µM (not active)"}
    ]},
    {"smiles": "CCCCSc1nc2c(cnn2-c2ccccc2)c(=O)n1N", "values": [
      {"measurement": "EC50", "setting": "[12]", "result": "0.348 µM (active)"},
      {"measurement": "EC50", "setting": "[13]", "result": "< 0.1 µM (active)"},
      {"measurement": "EC50", "setting": "[14]", "result": "> 120 µM (not active)"},
      {"measurement": "EC50", "setting": "[15]", "result": "0.347 µM (active)"},
      {"measurement": "EC50", "setting": "[16]", "result": "0.646 µM (active)"}
    ]},
    {"smiles": "O=C(CSc1nnc(C2CCCCC2)n1Cc1ccccc1)NCc1ccco1", "values": [
      {"measurement": "IC50", "setting": "[7]", "result": "> 100 µM (active)"},
      {"measurement": "IC50", "setting": "[9]", "result": "> 100 µM (active)"}
    ]},
    {"smiles": "CC(=O)OC1CC[C@]2(C#N)[C@H]3CC[C@]4(C)[C@H](C5C=CC(=O)O5)CCC4(O)C3CCC2(O)C1", "note": "(stereo partly specified)", "values": [
      {"measurement": "CC50", "setting": "[17]", "result": "13.5 µM (active)"},
      {"measurement": "CC50", "setting": "[18]", "result": "18.5 µM (active)"}
    ]},
    {"smiles": "O=C(Nc1cccc(Cl)c1)c1ccc(O)nn1", "values": [
      {"measurement": "EC50", "setting": "[1]", "result": "3.4 µM (active)"}
    ]}
  ]
}
